Values quoted from earlier work as cited in patent US20220031861A1, “COMBINATION THERAPY OF DIFFUSE LARGE B-CELL LYMPHOMA COMPRISING AN ANTI-CD79B IMMUNOCONJUGATES, AN ALKYLATING AGENT AND AN ANTI-CD20 ANTIBODY” (priority 2018, published 2022).

System: R/R DLBCL
[1] = R/R DLBCL, monotherapy and combined with an anti-CD20 monoclonal antibody

Which results are given for Polatuzumab vedotin?
complete remission (CR) rates [1]: 0-15%; overall response rates (ORR) [1]: 13-56%; CR rate reported previously (in combination with an anti-CD20 monoclonal antibody (Morschhauser et al. 2014, ROMULUS)): 15%
